From publication PMC8267177, “Cyclic Peptoid-Peptide Hybrids as Versatile Molecular Transporters” (Frontiers in Chemistry, 2021)
“Also recorded” adds a separate entry of the source. Non-standard residues stand in square brackets, D forms with d. Residues, ends and D or L forms follow the SMILES beside them. *: point of attachment. RhodamineB = CCN(CC)c1ccc2c(-c3ccccc3C(=O)*)c3ccc(=[N+](CC)CC)cc-3oc2c1; Gly(Nα-4-Cl-benzyl) = O=C(O)CNCc1ccc(Cl)cc1; Nphe = O=C(O)CNCc1ccccc1; NBuGly = CCCCNCC(=O)O; Nlys = NCCCCNCC(=O)O

Key:
in vitro = type: cell-based; settings: human
Procedure: The cytotoxicity of the macrocyclic hybrids 15–24, as well as their conjugates 15-Rhod to 24-Rhod, was examined using a standard MTT assay in human epithelial cervix carcinoma (HeLa) cells. […] ([Mosmann, 1983]; [Tolosa et al., 2015]) After treatment of HeLa cells with different concentrations of the respective macrocycles 15–24 (0.50─50 µM) for 72 h, no significant cytotoxic effects were observed. […] As shown by many research groups that Rhodamine B by itself is not efficiently entering the cells showing therefore an LD50 > 50 μM, we assume that this the toxicity of the Rhodamine moiety might be higher when increasingly localizing in the mitochondria to a higher amount.
In a 96-well plate (Corning® Costar® 3596 96-Well Cell Culture Cluster), 1.0 × 10^4 HeLa-cells per well of a 96 well plate were cultivated for 16 h. Stock solutions of the single compounds in dimethylsulfoxide were diluted to 0.50 µm, 5.00 µm, and 50.0 µm with cell culture medium (DMEM + 10% FBS + 1% P/S) to ensure a final concentration of DMSO below 0.5%. 100 µL of the prepared DMEM diluted compounds were added to each well and the cells were incubated for 72 h. All experiments were performed in triplicates. Cells that were solely treated with the culture medium containing 0.5% of DMSO served as a negative control. After incubation, the positive control (cells in DMSO plus 0.5% DMSO) was treated with 1% Triton-X. To determine the viability of the cells 20 µL of a freshly prepared solution of 3-(4,5-dimethylthiazol-2-yl)-2,5-diphenyltetrazolium bromide (MTT, 2.73 mg/mL, Sigma-Aldrich®) in culture medium were added to each well and incubated at 37 °C for 4 h. The reaction was stopped using 100 µL of Solubilization Solution / Stop Mix (CellTiter 96® Non-Radioactive Cell Proliferation Assay, Promega). After 24 h, the absorption (A) of every well at 595 nm was monitored using a 96-well plate reader (Ultra Microplate Reader ELx808, Biotech Instruments Inc.).

HeLa cells = experiment: Localization assay: cellular uptake and organellar localization by confocal microscopy; type: cell-based, human; settings: 5 µM, 5 h, 37 °C; for Cellular uptake efficiency: confocal microscopy of Rhodamine B fluorescence (Exc 532 nm, Em 570–620 nm); for Organellar localization (mitochondria): counterstaining with MitoTracker Green, confocal microscopy
Procedure: As 15-Rhod to 24-Rhod were not toxic at 5 µM the following transport experiments were carried out using this concentration. To study their cellular uptake and organellar localization, HeLa cells were treated with 5 µM of the cyclic conjugates 15-Rhod to 24-Rhod for 5 h and eventually imaged using confocal microscopy (for experimental details, see supplemental Material).
FIGURE 4 Localization of the macrocyclic conjugates 15-Rhod to 24-Rhod in HeLa cells. After incubation with a 5.0 µM solution of the respective transporters for 5 h, the cellular uptake was monitored via fluorescent confocal microscopy (Rhodamine B labeled hybrids: λ Exc = 532 nm, λ Em = 570–620 nm; MitoTracker® Green: λ Exc = 488 nm, λ Em = 490–540 nm; Hoechst 33,342: λ Exc = 405 nm, λ Em = 430–490 nm). Counterstaining with MitoTracker® Green visualized mitochondria (green). Staining with 2 μg/ml Hoechst 33,342 indicated nuclei (blue). Scale bar: 10 µm.
In an 8-well chamber slide (µ-Slide 8-Well ibidiTreat, ibidi®), 1.0 × 10^4 HeLa cells per well were cultivated for 16 h. The cyclic hybrids were diluted with DMEM to yield a 5 µM concentration. The cells were treated with the hybrids for 5 h at 37 °C. To monitor the intracellular localization, the cells were counterstained with MitoTracker® (Invitrogen) and 2 µg/mL Hoechst 33342. After washing with DPBS (3 ×), the luminescence was monitored via life-cell imaging using a Leica TCS-SPE confocal microscope (DM2500 inverse microscope, 8 Bit resolution, 1024 × 1024 pixels), equipped with a 1 Airy pinhole aperture (111.5 µm), ACS APO 63.0x/1.30 OIL UV and 40x/1.14 OIL UV objectives and the images were processed by the Leica Application Suite (LAS-AF) Version 2.1.2 build 4530 software. Images were taken with a scanning frequency of 400 Hz. Background noise was averaged by an eight-fold repetition of the scan process. The cyclic hybrids were excited at 532 nm, MitoTracker® Green at 488 nm, and Hoechst 33342 at 405 nm. The exposure was set to minimize oversaturated pixels in the final images. Fluorescence emission was measured at 570–620 nm for the detection of rhodamine B labeled hybrids, at 490–540 nm for the detection of mitochondria, and 430–490 nm for the detection of nuclei.

| SMILES | IC50 at 72 h (in vitro) [µM] | Cellular uptake efficiency (HeLa cells) | Organellar localization (mitochondria) (HeLa cells) |
| --- | --- | --- | --- |
| NCCCCN1CC(=O)N(Cc2ccccc2)CC(=O)N[C@@H](Cc2ccc(O)cc2)C(=O)N[C@@H](Cc2ccccc2)C1=O [compound 18, cyclo-(l-Phe-N4am-N1ph-l-Tyr)] (cyclo(F[Nlys][Nphe]Y)) | > 50 | – | – |
| NCCCCN1CC(=O)N[C@@H](Cc2ccccc2)C(=O)N(Cc2ccccc2)CC(=O)N(Cc2ccccc2)CC1=O [compound 15, cyclo-(l-Phe-N1ph-N1ph-N4am)] (cyclo(F[Nphe][Nphe][Nlys])) | > 50 | – | – |
| CCN(CC)c1ccc2c(-c3ccccc3C(=O)NCCCCN3CC(=O)N(Cc4ccccc4)CC(=O)N[C@@H](Cc4ccccc4)C(=O)N(Cc4ccc(Cl)cc4)CC3=O)c3ccc(=[N+](CC)CC)cc-3oc2c1 [16-Rhod, cyclo-(l-Phe-N1ph^pCl-N4am(Rhod)-N1ph)] (cyclo(F[Gly(Nα-4-Cl-benzyl)][Nlys](RhodamineB)[Nphe])) | 30 | – | – |
| CCN(CC)c1ccc2c(-c3ccccc3C(=O)NCCCCN3CC(=O)N[C@@H](Cc4ccc(O)cc4)C(=O)N[C@@H](Cc4ccccc4)C(=O)N(Cc4ccccc4)CC3=O)c3ccc(=[N+](CC)CC)cc-3oc2c1 [18-Rhod, cyclo-(l-Phe-N4am(Rhod)-N1ph-l-Tyr)] (cyclo(F[Nphe][Nlys](RhodamineB)Y)) | 33 | not internalized | – |
| CCN(CC)c1ccc2c(-c3ccccc3C(=O)NCCCC[C@@H]3NC(=O)CN(Cc4ccc(Cl)cc4)C(=O)CN(Cc4ccc(Cl)cc4)C(=O)[C@H](Cc4c[nH]c5ccccc45)NC3=O)c3ccc(=[N+](CC)CC)cc-3oc2c1 [20-Rhod, cyclo-(l-Trp-N1ph^pCl-N1ph^pCl-l-Lys(Rhod))] (cyclo([Gly(Nα-4-Cl-benzyl)][Gly(Nα-4-Cl-benzyl)]K(RhodamineB)W)) | > 50 | – | – |
| CCCCN1CC(=O)N[C@@H](CCCCNC(=O)c2ccccc2-c2c3ccc(=[N+](CC)CC)cc-3oc3cc(N(CC)CC)ccc23)C(=O)N[C@@H](Cc2ccc(O)cc2)C(=O)N(CCCC)CC1=O [21-Rhod, cyclo-(l-Tyr-N3m-N3m-l-Lys(Rhod))] (cyclo(K(RhodamineB)Y[NBuGly][NBuGly])) | 36 | – | – |
| CCN(CC)c1ccc2c(-c3ccccc3C(=O)NCCCCN3CC(=O)N(Cc4ccc(Cl)cc4)CC(=O)N(Cc4ccc(Cl)cc4)CC(=O)N(Cc4ccc(Cl)cc4)CC(=O)N[C@@H](Cc4ccccc4)C(=O)N[C@@H](Cc4ccccc4)C3=O)c3ccc(=[N+](CC)CC)cc-3oc2c1 [23-Rhod, cyclo-(l-Phe-N1ph^pCl-N1ph^pCl-N1ph^pCl-N4am(Rhod)-l-Phe)] (cyclo(F[Nlys](RhodamineB)[Gly(Nα-4-Cl-benzyl)][Gly(Nα-4-Cl-benzyl)][Gly(Nα-4-Cl-benzyl)]F)) | 6 | significantly less efficient | Mitochondrial accumulation |
| CCN(CC)c1ccc2c(-c3ccccc3C(=O)NCCCC[C@@H]3NC(=O)CN(Cc4ccccc4)C(=O)CN(Cc4ccccc4)C(=O)[C@H](Cc4c[nH]c5ccccc45)NC3=O)c3ccc(=[N+](CC)CC)cc-3oc2c1 [19-Rhod, cyclo-(l-Trp-N1ph-N1ph-l-Lys(Rhod))] (cyclo(K(RhodamineB)W[Nphe][Nphe])) | 34 | – | – |
| CCN(CC)c1ccc2c(-c3ccccc3C(=O)NCCCCN3CC(=O)N[C@@H](Cc4ccccc4)C(=O)N(Cc4ccccc4)CC(=O)N(Cc4ccccc4)CC3=O)c3ccc(=[N+](CC)CC)cc-3oc2c1 [15-Rhod, cyclo-(l-Phe-N1ph-N1ph-N4am(Rhod))] (cyclo(F[Nphe][Nphe][Nlys](RhodamineB))) | > 50 | – | – |
| CCCCN1CC(=O)N(Cc2ccccc2)CC(=O)N(CCCCNC(=O)c2ccccc2-c2c3ccc(=[N+](CC)CC)cc-3oc3cc(N(CC)CC)ccc23)CC(=O)N[C@@H](Cc2ccccc2)C1=O [17-Rhod, cyclo-(l-Phe-N3m-N1ph-N4am(Rhod))] (cyclo(F[NBuGly][Nphe][Nlys](RhodamineB))) | > 50 | – | – |
| NCCCC[C@@H]1NC(=O)CN(Cc2ccc(Cl)cc2)C(=O)CN(Cc2ccc(Cl)cc2)C(=O)[C@H](Cc2c[nH]c3ccccc23)NC1=O [compound 20, cyclo-(l-Trp-N1ph^pCl-N1ph^pCl-l-Lys)] (cyclo([Gly(Nα-4-Cl-benzyl)][Gly(Nα-4-Cl-benzyl)]KW)) | > 50 | – | – |
| NCCCCN1CC(=O)N(Cc2ccccc2)CC(=O)N[C@@H](Cc2ccccc2)C(=O)N(Cc2ccc(Cl)cc2)CC1=O [compound 16, cyclo-(l-Phe-N1ph^pCl-N4am-N1ph)] (cyclo(F[Gly(Nα-4-Cl-benzyl)][Nlys][Nphe])) | > 50 | – | – |
| CCCCN1CC(=O)N(Cc2ccccc2)CC(=O)N(CCCCN)CC(=O)N[C@@H](Cc2ccccc2)C1=O [compound 17, cyclo-(l-Phe-N3m-N1ph-N4am)] (cyclo(F[NBuGly][Nphe][Nlys])) | > 50 | – | – |

More lines, main results first:

| IC50 at 72 h (in vitro) [µM] | SMILES | Cellular uptake efficiency (HeLa cells) | Organellar localization (mitochondria) (HeLa cells) |
| --- | --- | --- | --- |
| > 50 | CCCCN1CC(=O)N(Cc2ccccc2)CC(=O)N(CCCCN)CC(=O)N[C@@H](Cc2ccccc2)C(=O)N[C@@H](Cc2ccccc2)C(=O)N(CCCC)CC1=O [compound 24, cyclo-(l-Phe-N3m-N3m-N1ph-N4am-l-Phe)] (cyclo(FF[NBuGly][NBuGly][Nphe][Nlys])) | – | – |
| > 50 | NCCCCN1CC(=O)N[C@@H](Cc2ccccc2)C(=O)N[C@@H](Cc2ccccc2)C(=O)N(Cc2ccccc2)CC(=O)N(Cc2ccccc2)CC(=O)N(Cc2ccccc2)CC1=O [compound 22, cyclo-(l-Phe-N1ph-N1ph-N1ph-N4am-l-Phe)] (cyclo(FF[Nphe][Nphe][Nphe][Nlys])) | – | – |
| > 50 | NCCCC[C@@H]1NC(=O)CN(Cc2ccccc2)C(=O)CN(Cc2ccccc2)C(=O)[C@H](Cc2c[nH]c3ccccc23)NC1=O [compound 19, cyclo-(l-Trp-N1ph-N1ph-l-Lys)] (cyclo(KW[Nphe][Nphe])) | – | – |
| > 50 | CCCCN1CC(=O)N[C@@H](CCCCN)C(=O)N[C@@H](Cc2ccc(O)cc2)C(=O)N(CCCC)CC1=O [compound 21, cyclo-(l-Tyr-N3m-N3m-l-Lys)] (cyclo(KY[NBuGly][NBuGly])) | – | – |
| 20 | NCCCCN1CC(=O)N[C@@H](Cc2ccccc2)C(=O)N[C@@H](Cc2ccccc2)C(=O)N(Cc2ccc(Cl)cc2)CC(=O)N(Cc2ccc(Cl)cc2)CC(=O)N(Cc2ccc(Cl)cc2)CC1=O [compound 23, cyclo-(l-Phe-N1ph^pCl-N1ph^pCl-N1ph^pCl-N4am-l-Phe)] (cyclo(FF[Gly(Nα-4-Cl-benzyl)][Gly(Nα-4-Cl-benzyl)][Gly(Nα-4-Cl-benzyl)][Nlys])) | – | – |
| 26 | CCCCN1CC(=O)N[C@@H](Cc2ccccc2)C(=O)N[C@@H](Cc2ccccc2)C(=O)N(CCCCNC(=O)c2ccccc2-c2c3ccc(=[N+](CC)CC)cc-3oc3cc(N(CC)CC)ccc23)CC(=O)N(Cc2ccccc2)CC(=O)N(CCCC)CC1=O [24-Rhod, cyclo-(l-Phe-N3m-N3m-N1ph-N4am(Rhod)-l-Phe)] (cyclo(F[Nlys](RhodamineB)[Nphe][NBuGly][NBuGly]F)) | efficiently taken up; also recorded: high cellular uptake efficiency | mitochondrial specificity |
